From patent publication US9695149B2, “1,2,6-substituted benzimidazoles as flap modulators” (JANSSEN PHARMACEUTICA NV, priority 2013, dated 2017)

How the values were obtained:
[1] = tested on: leukotriene pathway in human whole blood; assay: Human whole blood assay (LTB4, A23187-stimulated); assay type: cell-based; conditions: Homo sapiens, 0.5 h, human whole blood diluted 1:1 in RPMI, calcium ionophore A23187 7 μg/mL, 30 min
Protocol: (§1) The ability of the compounds of the present invention to treat a FLAP-mediated disease and/or disorder, or associated symptoms or complications thereof, was determined using the following procedures. Binding assay data represent the average value obtained from two different assay plates, with samples run in duplicate on each plate. Human whole blood assay data represent a single replicate on an assay plate using whole blood from at least one healthy donor.
An in vitro cellular assay was performed using human whole blood collected in heparin-containing tubes, which was used to test the ability of compounds to modulate the leukotriene pathway in human whole blood. The blood was diluted 1:1 in RPMI medium, pre-incubated for 15 min at 37° Celsius with test compounds at various concentrations, and then stimulated with calcium ionophore, A23187 (7 μg/mL), for 30 min at 37° Celsius. The samples were then centrifuged and plasma was removed. The plasma was diluted in assay buffer and LTB4 levels were measured using a commercial kit (Enzo Life Sciences). The concentration of each compound that was required for half-maximal inhibition (modulation) of […] (IC50) was calculated by a 4-parameter equation using the program GraphPad Prism (GraphPad software). For analysis, data are imported into 3DX and aggregated as the average of duplicates of the calculated ratios in order to calculate Ki and IC50 values. Numbers in parentheses are the number of runs for the assay.

human FLAP = human FLAP (Homo sapiens (Human), UniProt P20292); assay: FLAP binding assay (HTRF format); conditions: human FLAP-containing Sf-9 membranes, wild type; average of runs
human FLAP, sequence (P20292 whole entry): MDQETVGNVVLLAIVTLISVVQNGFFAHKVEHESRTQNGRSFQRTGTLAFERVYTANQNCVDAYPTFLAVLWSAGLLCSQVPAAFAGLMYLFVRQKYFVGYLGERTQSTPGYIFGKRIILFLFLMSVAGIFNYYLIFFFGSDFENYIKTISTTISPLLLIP
Protocol: as §1
The assay below is used to test the modulatory activity of compounds against FLAP. Human and mouse FLAP-encoding DNA was amplified by polymerase chain reaction and cloned into pFastBac1 (Invitrogen) with a NH2-terminal 6-His tag for expression in Spodoptera frugiperda (Sf-9) cells. FLAP-containing membranes were prepared as was a FITC-labeled FLAP modulator (3-(3-(tert-butylthio)-1-(4-chlorobenzyl)-5-(quinolin-2-ylmethoxy)-1H-indol-2-yl)-2,2-dimethylpropanoic acid). The FLAP binding assay is performed in HTRF format (homogeneous time resolved fluorescence). […] The reaction is allowed to proceed for two hours after which the plate is read on an Envision plate reader in HTRF mode. Data are expressed as a HTRF ratio.
For human FLAP binding assays, data are analyzed with 3DX Explorer software. […] For analysis, data from multiple runs are averaged and each compound may be tested in 2 to 20 runs. Each run comprises two plates and each plate includes duplicates. Data from each plate is averaged and data are imported into 3DX. The data from multiple runs are aggregated as the average of duplicates of the calculated ratios in order to calculate Ki and IC50 values. Numbers in parentheses are the number of runs for the assay.

| SMILES | IC50 [1] [nM] | Ki (human FLAP) [nM] |
| --- | --- | --- |
| Cc1ccc(COc2ccc3nc(C4CCCC[C@H]4C(=O)O)n(Cc4cccc(C)c4)c3c2)nc1 (mixture of isomers) [Example 200, racemic trans-2-{1-(3-Methylbenzyl)-6-[(5-methylpyridin-2-yl)methoxy]-1H-benzimidazol-2-yl}cyclohexanecarboxylic acid] | 3140 | 30 |
| CCC(CC)(Cc1nc2ccc(OCc3ccn(C)n3)cc2n1Cc1cccc(N2CCC(F)(F)C2)c1)C(=O)O [Example 211, 2-({1-[3-(3,3-Difluoropyrrolidin-1-yl)benzyl]-6-[(1-methyl-1H-pyrazol-3-yl)methoxy]-1H-benzimidazol-2-yl}methyl)-2-ethylbutanoic acid] | 840 | 35 |
| Cc1ccc(COc2ccc3nc(C4CCCC[C@H]4C(=O)O)n(Cc4ccccc4C)c3c2)nc1 (mixture of isomers) [Example 206, racemic trans-2-{1-(2-Methylbenzyl)-6-[(5-methylpyridin-2-yl)methoxy]-1H-benzimidazol-2-yl}cyclohexanecarboxylic acid] | 1270 | 45 |
| Cc1cnc(COc2ccc3nc(CC(C)(C)C(=O)O)n(Cc4cc(Br)ccc4F)c3c2)c(F)c1 [Example 193, 3-{1-(5-Bromo-2-fluorobenzyl)-6-[(3-fluoro-5-methylpyridin-2-yl)methoxy]-1H-benzimidazol-2-yl}-2,2-dimethylpropanoic acid] | 5550 | 120 |
| Cc1ccc(COc2ccc3nc(C4CCCC[C@H]4C(=O)O)n(Cc4cccc(Br)c4)c3c2)nc1 (mixture of isomers) [Example 228, racemic cis-2-{1-(3-Bromobenzyl)-6-[(5-methylpyridin-2-yl)methoxy]-1H-benzimidazol-2-yl}cyclohexanecarboxylic acid] | 4010 | 6.8 |
